Source: ChEMBL document CHEMBL5325505, “Discovery of chiral 1,4-diarylazetidin-2-one-based hydroxamic acid derivatives as novel tubulin polymerization inhibitors with histone deacetylase inhibitory activity” (Bioorg Med Chem, 2023)
In brackets after ≈: the same amount, converted by molar mass. Activity calls are given as the source filed them. The calls are words filed in the database; no cut-off is given here.

Columns and labels:
[1] = Metabolic stability in human liver microsomes assessed as compound remaining incubated for 60 mins; format: ADME, Microsome; details: liver microsomes, read-out: Stability
[2] = Metabolic stability in human liver microsomes assessed as compound remaining incubated for 30 mins; format: ADME, Microsome; details: liver microsomes, read-out: Stability
[3] = system: BE(2)-C; experiment: Upregulation of acetylated tubulin expression in human BE2C cells by Western blot analysis; format: functional, cell-based; details: dose 25-100 nM
[4] = system: BE(2)-C; experiment: Inhibition of colony formation in human BE2C cells at 100 nM incubated for 36 hrs by gentian violet staining based assay relative to control; format: functional
[5] = system: BE(2)-C; experiment: Induction of apoptosis in human BE2C cells assessed as late apoptotic cells at 25 nM incubated for 48 hrs by annexin V-FITC/PI staining based flow cytometry (reference value: 9.99 %); format: functional
[6] = system: BE(2)-C; experiment: Inhibition of colony formation in human BE2C cells incubated for 36 hrs by gentian violet staining based assay; format: functional, cell-based; details: dose 25-100 nM
[7] = system: U-87 MG; experiment: Antiproliferative activity against human U-87 MG cells incubated for 48 hrs by MTT assay; format: functional, cell-based, U-87MG ATCC
[8] = molecular target: T1, Histone deacetylase 8 (Homo sapiens, UniProt Q9BY41); experiment: Inhibition of HDAC8 (unknown origin)
T1 sequence (Q9BY41 whole entry): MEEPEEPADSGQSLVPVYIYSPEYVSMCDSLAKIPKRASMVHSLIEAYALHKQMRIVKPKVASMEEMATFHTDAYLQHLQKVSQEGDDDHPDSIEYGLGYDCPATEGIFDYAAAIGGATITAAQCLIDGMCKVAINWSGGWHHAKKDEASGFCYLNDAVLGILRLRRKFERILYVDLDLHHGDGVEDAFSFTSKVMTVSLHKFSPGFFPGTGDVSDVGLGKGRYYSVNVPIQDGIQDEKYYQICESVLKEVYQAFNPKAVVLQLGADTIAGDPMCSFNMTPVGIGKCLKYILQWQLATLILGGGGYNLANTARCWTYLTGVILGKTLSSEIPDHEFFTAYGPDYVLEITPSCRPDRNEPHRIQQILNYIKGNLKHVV

[9] = system: BE(2)-C; experiment: Induction of apoptosis in human BE2C cells assessed as necrotic cells at 25 nM incubated for 48 hrs by annexin V-FITC/PI staining based flow cytometry (reference value: 3.57 %); format: functional
[10] = system: BE(2)-C; experiment: Induction of cell cycle arrest in human BE2C cells assessed as increase in phosphorylated H3 expression by Western blot analysis; format: functional, cell-based; details: dose 12.5-50 nM
[11] = molecular target: T2, Protein deacetylase HDAC6 (Homo sapiens, UniProt Q9UBN7); experiment: Inhibition of HDAC6 (unknown origin)
T2 sequence (Q9UBN7 whole entry): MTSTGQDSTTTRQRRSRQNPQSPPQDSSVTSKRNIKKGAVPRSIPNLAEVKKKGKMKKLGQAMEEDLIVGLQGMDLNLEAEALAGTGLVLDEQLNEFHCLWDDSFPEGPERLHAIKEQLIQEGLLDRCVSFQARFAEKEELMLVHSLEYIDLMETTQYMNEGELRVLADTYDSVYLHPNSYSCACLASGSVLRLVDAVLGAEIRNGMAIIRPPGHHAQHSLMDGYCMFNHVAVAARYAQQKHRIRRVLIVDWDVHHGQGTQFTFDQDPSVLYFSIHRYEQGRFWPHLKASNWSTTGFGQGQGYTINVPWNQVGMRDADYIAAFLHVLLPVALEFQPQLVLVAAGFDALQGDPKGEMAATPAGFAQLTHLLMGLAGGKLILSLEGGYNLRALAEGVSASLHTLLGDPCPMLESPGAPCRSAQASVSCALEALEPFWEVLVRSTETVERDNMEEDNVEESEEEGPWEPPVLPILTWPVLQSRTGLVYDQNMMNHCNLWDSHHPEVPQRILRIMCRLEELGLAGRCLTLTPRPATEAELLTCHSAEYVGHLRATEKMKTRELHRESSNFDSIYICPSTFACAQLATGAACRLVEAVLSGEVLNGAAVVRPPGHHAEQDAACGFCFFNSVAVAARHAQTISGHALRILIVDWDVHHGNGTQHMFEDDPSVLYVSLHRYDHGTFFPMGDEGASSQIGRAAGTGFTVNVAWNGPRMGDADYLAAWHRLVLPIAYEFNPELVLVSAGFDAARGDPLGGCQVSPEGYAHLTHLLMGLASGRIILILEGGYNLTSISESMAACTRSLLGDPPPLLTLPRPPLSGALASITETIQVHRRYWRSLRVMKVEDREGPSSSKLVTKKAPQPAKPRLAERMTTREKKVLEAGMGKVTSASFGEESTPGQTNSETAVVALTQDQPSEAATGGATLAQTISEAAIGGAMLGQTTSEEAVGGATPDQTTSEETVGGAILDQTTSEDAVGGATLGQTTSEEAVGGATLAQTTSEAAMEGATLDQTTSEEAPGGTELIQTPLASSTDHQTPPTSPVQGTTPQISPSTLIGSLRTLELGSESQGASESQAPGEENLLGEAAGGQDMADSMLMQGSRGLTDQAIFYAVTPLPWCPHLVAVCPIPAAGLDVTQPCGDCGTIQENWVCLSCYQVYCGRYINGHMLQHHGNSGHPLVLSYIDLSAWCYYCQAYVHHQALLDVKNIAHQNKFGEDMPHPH

[12] = Metabolic stability in human liver microsomes assessed as compound remaining incubated for 20 mins; format: ADME, Microsome; details: microsomes, 20 min
[13] = system: BE(2)-C; experiment: Induction of apoptosis in human BE2C cells assessed as early apoptotic cells at 50 nM incubated for 48 hrs by annexin V-FITC/PI staining based flow cytometry (reference value: 4.28 %); format: functional
[14] = system: BE(2)-C; experiment: Antitumor activity against human BE2C cells xenografted in nude mouse assessed as tumor growth inhibition at 25 mg/kg, ip treated for every 3 days relative to control; format: functional; details: 72 h, time 3 day, read-out: TGI
[15] = system: BE(2)-C; experiment: Induction of cell cycle arrest in human BE2C cells assessed as accumulation at G2/M phase incubated for 24 hrs by RNase/PI staining based flow cytometry; format: functional
[16] = system: HCT-116; experiment: Antiproliferative activity against human HCT-116 cells incubated for 48 hrs by MTT assay; format: functional, cell-based; details: HCT-116, 48 h
[17] = Aqueous solubility of compound at 1 mg incubated for 10 mins; format: physicochemical
[18] = system: BE(2)-C; experiment: Induction of apoptosis in human BE2C cells assessed as viable cells at 25 nM incubated for 48 hrs by annexin V-FITC/PI staining based flow cytometry (reference value: 82.16 %); format: functional; details: read-out: Activity
[19] = system: BE(2)-C; experiment: Induction of apoptosis in human BE2C cells assessed as early apoptotic cells at 25 nM incubated for 48 hrs by annexin V-FITC/PI staining based flow cytometry (reference value: 4.28 %); format: functional
[20] = Toxicity in nude mouse xenografted with human BE2C cells assessed as adverse effect at 25 mg/kg, ip treated for every 3 days; format: organism-based; details: in vivo, 72 h, time 3 day
[21] = system: BE(2)-C; experiment: Induction of apoptosis in human BE2C cells assessed as viable cells at 100 nM incubated for 48 hrs by annexin V-FITC/PI staining based flow cytometry (reference value: 82.16 %); format: functional; details: read-out: Activity
[22] = system: BE(2)-C; experiment: Induction of apoptosis in human BE2C cells assessed as late apoptotic cells at 100 nM incubated for 48 hrs by annexin V-FITC/PI staining based flow cytometry (reference value: 9.99 %); format: functional

remaining at 1 h [1]: 55.3%
remaining at 0.5 h [2]: 58.2%
IC50 [7]: 56 nM
IC50 [8]: 177 nM
IC50 [11]: 1040 nM
Stability [12]: 61.3%
IC50 [16]: 51 nM
solubility at 10 min [17]: 102 µg/mL (≈ 185 µM)
Structure (SMILES): COc1ccc([C@H]2[C@H](COC(=O)c3ccc(C(=O)NO)cc3)C(=O)N2c2cc(OC)c(OC)c(OC)c2)cc1O
Activity [3]: Dose-Dependent Effect
inhibition at 0.1 µM [4]: 100%
Activity [5]: 19.01%
inhibition [6]: Active
Activity [9]: 7.06%
Activity [10]: Dose-Dependent Effect
Activity [13]: 12.23%
inhibition in vivo at 25 mg/kg [14]: 67%
Activity [15]: Dose-Dependent Effect
viability at 0.025 µM [18]: 62.1%
Activity [19]: 11.81%
Activity [20]: Non-Toxic
viability at 0.1 µM [21]: 29.2%
Activity [22]: 44%
